Series [1] in a line: Cytotoxicity against human RD cells assessed as reduction in cell viability after 72 hrs by CCK-8 assay. (Formazan colour is commonly taken as a measure of viable cells.)
In series [2] the test system is Enterovirus A71. The series is described as follows: Antiviral activity against EV71 695F infected in ICR mouse assessed as effect on clinical score at 0.4 mg/kg, ip qd administered for 7 days dosed prior to viral infection measured for 2 weeks. Type of series: functional, organism-based.
Series [3] deals with Enterovirus A71. The series is described as follows: Antiviral activity against EV71 695F infected in ICR mouse assessed as protection against viral infection by measuring mouse survival at 0.4 mg/kg, ip qd administered for 7 days dosed prior to viral infection measured on day 14 relative to control. Type of series: functional. As to conditions: Enterovirus A.
Series [4] relates to Enterovirus A71. Briefly: Antiviral activity against EV71 695F infected in ICR mouse assessed as decrease in body weight loss at 0.4 mg/kg, ip qd administered for 7 days dosed prior to viral infection measured for 2 weeks. In kind it is functional, organism-based.
A short description of series [5]: Cmax in CD-1 mouse at 5 mg/kg, ip administered as single dose. In kind it is ADME, organism-based. Also on record: dose 5 mg/kg, route intraperitoneal. As to conditions: in vivo.
A short description of series [6]: Clearance in CD-1 mouse at 2 mg/kg, iv administered as single dose. Type of series: ADME, organism-based. As to conditions: in vivo.
Series [7] can be described thus: Elimination half life in CD-1 mouse at 2 mg/kg, iv administered as single dose. Type of series: ADME, organism-based. The settings on record: in vivo, read-out: beta t1/2 (converted).
A short description of series [8]: […] bioavailability in CD-1 mouse at 5 mg/kg, ip administered as single dose. Type of series: ADME, organism-based. The settings on record: in vivo, intraperitoneal.
Series [9] in a line: AUC in CD-1 mouse at 5 mg/kg, ip administered as single dose. In kind it is ADME, organism-based. The settings on record: in vivo.
Series [10] can be described thus: AUC in CD-1 mouse at 2 mg/kg, iv administered as single dose. In kind it is ADME, organism-based. The settings on record: in vivo.
Series [11] is described as follows: Tmax in CD-1 mouse at 5 mg/kg, ip administered as single dose. The settings on record: in vivo. Type of series: ADME, organism-based.
Series [12] can be described thus: Volume of distribution in CD-1 mouse at 2 mg/kg, iv administered as single dose. Type of series: ADME, organism-based. As to conditions: in vivo.
Series [13] in a line: Stability in mouse liver microsomes. In kind it is ADME, microsome.
In series [14] the test system is Mus musculus. The series is described as follows: Toxicity in ICR mouse infected with EV71 695F assessed as death at 50 mg/kg, ip qd administered for 7 days measured on day 6. Type of series: organism-based. The settings on record: in vivo, 168 h.
Series [15] deals with Mus musculus. Briefly: Toxicity in ICR mouse infected with EV71 695F assessed as death at 100 mg/kg, ip qd administered for 7 days measured on day 5. In kind it is organism-based. The settings on record: in vivo, 168 h.
Series [16] is described as follows: AUC in CD-1 mouse at 5 mg/kg, po administered as single dose. In kind it is ADME, organism-based. The settings on record: in vivo.
The nature of series [17]: Cmax in CD-1 mouse at 5 mg/kg, po administered as single dose. In kind it is ADME, organism-based. As to conditions: in vivo. Also noted: dose 5 mg/kg, route oral.
The nature of series [18]: […] bioavailability in CD-1 mouse at 5 mg/kg administered as single dose. In kind it is ADME, organism-based. The settings on record: in vivo, po.
The target in series [19] is Voltage-gated inwardly rectifying potassium channel KCNH2 (Homo sapiens, UniProt Q12809). Briefly: Inhibition of human ERG expressed in CHO-K1 cells by Qpatch assay. On the technique in general: Patch clamp records ionic current or voltage across a cell membrane.
Voltage-gated inwardly rectifying potassium channel KCNH2, sequence (Q12809 whole entry): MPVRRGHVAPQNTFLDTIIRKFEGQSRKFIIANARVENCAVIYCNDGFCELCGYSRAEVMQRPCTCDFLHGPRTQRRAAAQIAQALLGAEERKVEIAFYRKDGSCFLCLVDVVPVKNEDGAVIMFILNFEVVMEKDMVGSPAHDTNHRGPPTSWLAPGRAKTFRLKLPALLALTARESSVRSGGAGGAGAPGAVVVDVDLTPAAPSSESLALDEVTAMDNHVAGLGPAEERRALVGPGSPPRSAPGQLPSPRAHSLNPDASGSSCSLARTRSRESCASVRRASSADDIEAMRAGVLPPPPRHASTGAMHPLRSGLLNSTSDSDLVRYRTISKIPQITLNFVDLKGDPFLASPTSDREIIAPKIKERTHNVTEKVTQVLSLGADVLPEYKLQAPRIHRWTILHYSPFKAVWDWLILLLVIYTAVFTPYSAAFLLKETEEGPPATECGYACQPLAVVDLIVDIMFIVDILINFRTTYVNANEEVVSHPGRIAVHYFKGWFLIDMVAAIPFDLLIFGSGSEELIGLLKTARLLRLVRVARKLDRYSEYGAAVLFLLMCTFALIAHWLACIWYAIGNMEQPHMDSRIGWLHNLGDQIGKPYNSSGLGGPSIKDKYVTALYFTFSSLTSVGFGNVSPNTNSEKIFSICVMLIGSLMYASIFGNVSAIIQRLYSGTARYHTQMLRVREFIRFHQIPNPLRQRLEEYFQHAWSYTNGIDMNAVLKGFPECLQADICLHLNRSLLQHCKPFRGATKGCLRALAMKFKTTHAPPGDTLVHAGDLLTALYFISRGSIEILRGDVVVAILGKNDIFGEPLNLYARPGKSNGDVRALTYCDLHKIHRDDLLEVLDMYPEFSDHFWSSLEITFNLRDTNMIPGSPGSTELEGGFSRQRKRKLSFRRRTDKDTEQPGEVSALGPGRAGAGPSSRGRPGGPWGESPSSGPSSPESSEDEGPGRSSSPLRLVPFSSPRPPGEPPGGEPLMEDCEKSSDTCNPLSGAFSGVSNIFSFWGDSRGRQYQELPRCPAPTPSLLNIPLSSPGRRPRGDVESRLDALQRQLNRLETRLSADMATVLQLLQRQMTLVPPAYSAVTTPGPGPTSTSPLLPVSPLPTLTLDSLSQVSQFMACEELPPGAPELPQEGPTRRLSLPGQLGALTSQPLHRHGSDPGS
Series [20] can be described thus: Tmax in CD-1 mouse at 5 mg/kg, po administered as single dose. Type of series: ADME, organism-based. The settings on record: in vivo.
In series [21] the test system is Enterovirus A71. The series is described as follows: Antiviral activity against EV71 695F infected in ICR mouse assessed as protection against viral infection by measuring mouse survival at 10 mg/kg, ip qd administered for 7 days dosed after viral infection measured for 2 weeks relative to control. Type of series: functional. As to conditions: Enterovirus A.
Series [22] has as its system Enterovirus A71. Briefly: Antiviral activity against EV71 695F infected in ICR mouse assessed as protection against viral infection by measuring mouse survival at 10 mg/kg, ip qd administered for 7 days dosed prior to viral infection measured for 2 weeks relative to control. Type of series: functional. As to conditions: Enterovirus A.
For series [23], the system named is Enterovirus A71. Briefly: Antiviral activity against EV71 695F infected in ICR mouse assessed as effect on clinical score at 10 mg/kg, ip qd administered for 7 days dosed after viral infection measured for 2 weeks. In kind it is functional, organism-based.
Series [24] has as its system Enterovirus A71. Briefly: Antiviral activity against EV71 695F infected in ICR mouse assessed as effect on clinical score at 10 mg/kg, ip qd administered for 7 days dosed prior to viral infection measured for 2 weeks. Type of series: functional, organism-based.
Series [25] deals with Enterovirus A71. The series is described as follows: Antiviral activity against EV71 695F infected in ICR mouse assessed as decrease in body weight loss at 10 mg/kg, ip qd administered for 7 days dosed after viral infection measured for 2 weeks. Type of series: functional, organism-based.
Series [26] relates to Enterovirus A71. Briefly: Antiviral activity against EV71 695F infected in ICR mouse assessed as decrease in body weight loss at 10 mg/kg, ip qd administered for 7 days dosed prior to viral infection measured for 2 weeks. In kind it is functional, organism-based.

The structures appear in SMILES notation. Active and inactive are the calls of the source. The calls are words filed in the database; no cut-off is given here.

The values below come from ChEMBL document CHEMBL4190331, “Discovery of Potent EV71 Capsid Inhibitors for Treatment of HFMD” (ACS Med Chem Lett, 2017).

`CCn1ncc2cc(OCCCCCN3CCN(c4ccnc(N)c4)S3(=O)=O)ccc21`: the CC50 at 72 h in series [1] (RD cells) is greater than 100 µM.
With `O[C@H]1[C@H]2c3cc4c(cc3CN3CCC(=C[C@@H]1O)[C@H]23)OCO4` [LYCORINE], the result in [2] and in series [4] was Active. The survival at 0.4 mg/kg in [3] worked out at 30%.
Consider `CCc1noc2cc(OCCCCCN3CCN(c4ccnc(N)c4)S3(=O)=O)ccc12`, for which the CC50 at 72 h in [1] (RD cells) was greater than 100 µM.
With `O=C1N(CCCCc2cc3cc(-c4ccc(Cl)cc4)ccc3o2)CCN1c1ccncc1`, the CC50 at 72 h in series [1] (RD cells) came out at 4.3 µM.
For `O=C1N(CCCCc2nc3cc(-c4ccc(Cl)cc4)ccc3o2)CCN1c1ccncc1`, the half-maximal cytotoxic concentration (CC50) at 72 h in [1] (RD cells) is greater than 100 µM.
With `CCO/N=C/c1ccc(OCCC(C)CCN2CCN(c3ccnc(N)c3)C2=O)cc1` (configuration not stated), the peak level in series [5] (Cmax) was 1560 nM. The clearance in series [6] is 105 mL/min/kg. Further, the half-life in series [7] is 0.3 h. Further, the bioavailability in [8] was determined as 92%. Further, the AUC in series [9] is 1.71 µM·h; in [10] it was 0.371 µM·h. In addition, the cytotoxic concentration (CC50) at 72 h in series [1] (rd) was 5 µM. In [11], the Tmax worked out at 0.3 h. Also, the Vd in [12] worked out at 2.4 L/kg.
Regarding `CCO/N=C(\CC)c1ccc(OCCCCCN2CCN(c3ccnc(N)c3)S2(=O)=O)cc1`, in [1] (RD cells), the half-maximal cytotoxic concentration (CC50) at 72 h is greater than 100 µM.
As for `O=C1N(CCCCCOc2ccc(-c3ccc(Cl)cc3)cc2)CCN1c1ccncc1`, in [5], the maximum concentration (Cmax) came to 453 nM. In series [6], this compound returned a clearance of 28 mL/min/kg. For the same compound, the Stability in series [13] is 40 to 50 µL/min/mg. Further, the half-life in [7] is 4 h. Moreover, the bioavailability in series [8] is 64%. The results for the AUC in series [9] and in series [10] were 4.28 µM·h and 2.73 µM·h, respectively. The CC50 at 72 h in series [1] (RD cells) was greater than 100 µM. Besides, the time of peak concentration (Tmax) in series [11] came to 2 h. In [12], the Vd came out at 9 L/kg.
In turn, `O=C1CN(c2ccncc2)CCN1CCCCCOc1ccc(-c2ccc(Cl)cc2)cc1` registered a peak concentration (Cmax) in [5] of 1260 nM. The compound also yielded a clearance in series [6] of 21 mL/min/kg. Moreover, in series [13], the Stability is 40 to 50 µL/min/mg. For the same compound, the half-life in series [7] was 6 h. The bioavailability in [8] worked out at 112%. The exposure (AUC) turned out to be 8.95 µM·h in series [9] and 3.34 µM·h in series [10]. Also, in [1] (rd), the cytotoxic concentration (CC50) at 72 h came to 3.2 µM. In [11], the Tmax came to 2 h. Further, the distribution volume (Vd) in series [12] came to 10 L/kg.
`CCO/N=C1\CCCc2cc(OCCCCCN3CCN(c4ccnc(N)c4)S3(=O)=O)ccc21`: the CC50 at 72 h in series [1] (RD cells) is greater than 100 µM.
In series [5], `O=C1N(CCCCC2CCc3cc(-c4ccc(Cl)cc4)ccc3O2)CCN1c1ccncc1` (configuration not stated) registered a maximum concentration (Cmax) of 3360 nM. This compound also registered a clearance in series [6] of 6 mL/min/kg. Further, in [13], the Stability was 40 to 50 µL/min/mg. The half-life in [7] is 5 h. In addition, the bioavailability in series [8] stood at 86%. Besides, the AUC in series [9] turned out to be 23.2 µM·h; in series [10], 11 µM·h. Moreover, the cytotoxic concentration (CC50) at 72 h in series [1] (rd) came to 3.4 µM. For the same compound, the time to peak (Tmax) in series [11] is 1 h. The distribution volume (Vd) in series [12] is 3 L/kg.
For `NC(=O)c1ncn([C@@H]2O[C@H](CO)[C@@H](O)[C@H]2O)n1` [RIBAVIRIN], the Activity result in [14] and in [15] was “Toxic” each time.
Regarding `Nc1cc(N2CCN(CCCCCOc3ccc(-c4ccc(Cl)cc4)cc3)S2(=O)=O)ccn1`, the cytotoxic concentration (CC50) at 72 h in series [1] (RD cells) was greater than 100 µM.
Take `O=S1(=O)N(CCCCCOc2ccc(-c3ccc(Cl)cc3)cc2)CCN1c1ccncc1`: the Cmax in [5] was found to be 682 nM; in series [17], 617 nM. In [6], this compound had a clearance of 12 mL/min/kg. The Stability in series [13] is less than 10 µL/min/mg. Also, the exposure (AUC) amounted to 6.17 µM·h in series [16], 9.01 µM·h in [9] and 5.71 µM·h in [10]. The half-life in series [7] was 6 h. Also, the bioavailability was 43% in [18] and 63% in [8]. This compound also came in with an IC50 in series [19] greater than 30 µM. The CC50 at 72 h in [1] (RD cells) is greater than 100 µM. The time of peak concentration (Tmax) in series [11] and in series [20] was 2 h in each case. This compound also gave a distribution volume (Vd) in series [12] of 5 L/kg.
Regarding `CCO/N=C/c1ccc(OCCCCCN2CCN(c3ccnc(N)c3)S2(=O)=O)cc1`, in series [5], the Cmax is 1440 nM. In series [6], this compound displayed a clearance of 36 mL/min/kg. Moreover, the half-life in [7] was 1.6 h. For the same compound, in series [8], the bioavailability was determined as 79%. Besides, the area under the curve (AUC) is 2.45 µM·h in series [9] and 0.592 µM·h in [10]. The half-maximal cytotoxic concentration (CC50) at 72 h in series [1] (rd) is greater than 100 µM. Moreover, in series [11], the time of peak concentration (Tmax) came to 0.5 h. In series [12], this compound gave a Vd of 3.2 L/kg.
The compound `CCO/N=C1\CCc2cc(OCCCCCN3CCN(c4ccnc(N)c4)S3(=O)=O)ccc21` yielded a Cmax in series [5] of 2150 nM. The compound further showed a clearance in series [6] of 34 mL/min/kg. For the same compound, in [7], the half-life is 1.5 h. Further, the survival at 10 mg/kg in [21] and in series [22] was 100% throughout. Moreover, the outcome in [23], in series [24], in series [25] and in [26] was Active. In addition, in series [8], the bioavailability was determined as 88%. The AUC in [9] amounted to 3.87 µM·h; in series [10] it was 0.821 µM·h. The CC50 at 72 h in series [1] (rd) was 42 µM. Moreover, the Tmax in series [11] stood at 0.7 h. Further, the Vd in series [12] came to 2.8 L/kg.
With `CCO/N=C(\C)c1ccc(OCCCCCN2CCN(c3ccnc(N)c3)S2(=O)=O)cc1`, the CC50 at 72 h in series [1] (RD cells) is greater than 100 µM.
With `CCn1ccc2cc(OCCCCCN3CCN(c4ccnc(N)c4)S3(=O)=O)ccc21`, in [1] (RD cells), the CC50 at 72 h was greater than 100 µM.

One may read the CC50 as the concentration that lowers cell viability or growth by half. What is called Cmax is the highest concentration seen after dosing. What is called clearance is the volume of plasma or blood freed of the substance per unit of time. Read a low clearance as a low capacity for elimination. In general, AUC refers to the area under the concentration-time curve, a measure of exposure. High values mean more exposure, low ones less exposure. What is called Tmax is the time at which the peak concentration occurs. Usually Vd stands for the apparent volume that relates the amount in the body to the concentration in plasma or blood. Read a low Vd as little distribution into tissue. One may read the IC50 as the concentration that gives 50% inhibition. High values mean lower potency, low ones higher potency.
